The test has as its system anti-peptide immunoglobulin G (IgG) in plasma. In words: Anti-peptide IgG in plasma measured by the Luminex system. Format: binding, human. Particulars: for Positive cases/total cases, Patients: Table 3, IgGs reactive to peptide in plasma of glioma patients; for Positive cases/total cases, Healthy donors: Table 3, IgGs reactive to peptide in plasma of healthy donors; for Positive cases/total cases, Total: Table 3, patients plus healthy donors; for Total (IgG-positive cases/total cases): positive = >1.25 times no peptide control. As for the experimental part:
The levels of anti-peptide immunoglobulin G (IgG) were measured by the Luminex™ system as previously reported (Komatsu N et al, Scand J Clin Invest 2004; 64: 1-11). In brief, plasma was incubated with 25 μl of peptide-coupled color-coded beads (Luminex Corp., Austin, Tex., USA) for 2 h at room temperature on a plate shaker. After incubation, the mixture was washed with a vacuum manifold apparatus and incubated with 100 μl of biotinylated goat anti-human IgG (BA-3080, Vector Laboratories, Burlingame, Calif., USA) for 1 h at room temperature. The plate was then washed, and 100 μl of streptavidin-PE (S-866, Molecular Probes, Eugene, Oreg., USA) was added to each well and was incubated for 30 min at room temperature on a plate shaker. The bound beads were washed three times followed by the addition of 100 μl of Tween-PBS to each well. Fifty μl of each sample was then examined using the Luminex™ system.
Next, the abilities of the KIF-derived peptides to be recognized by IgGs of glioma patients were examined, because IgGs reactive to CTL-directed peptides are detectable in the plasma of patients with different types of cancer (Nakatsura T et al, Eur J Immunol 32: 826-836, 2002), along with that levels of IgG well correlated with clinical responses of patients who received peptide vaccination as reported previously (Mine T et al, Clin Cancer Res 10: 929-937, 2004; Yajima N et al, Clin Cancer Res 11: 5900-5911, 2005). IgGs reactive to a corresponding peptide were judged to be significant when the immunofluorescence intensity in 1:100-diluted plasma exceeded 1.25 times that of the control samples with no peptides. […] Based on these findings, these 8 KIF peptides (3 for KIF1C, 3 for KIF3C, and 2 for KIF21B) were the focus of the following experiments.

The mark [1] stands for this setting: Healthy donor 1, 1:100-diluted plasma.
Where [2] appears, read: Healthy donor 2, 1:100-diluted plasma.
The mark [3] stands for this setting: Healthy donor 3, 1:100-diluted plasma.
Setting [4] is: Healthy donor 4, 1:100-diluted plasma.
Where [5] appears, read: Healthy donor 5, 1:100-diluted plasma.
The mark [6] stands for this setting: Healthy donor 6, 1:100-diluted plasma.
Where [7] appears, read: Healthy donor 7, 1:100-diluted plasma.
Where [8] appears, read: Healthy donor 8, 1:100-diluted plasma.
Setting [9] is: Healthy donor 9, 1:100-diluted plasma.
Setting [10] is: glioma Patient 1, 1:100-diluted plasma.
Setting [11] is: glioma Patient 2, 1:100-diluted plasma.
[12] abbreviates: glioma Patient 3, 1:100-diluted plasma.
Where [13] appears, read: glioma Patient 4, 1:100-diluted plasma.
Where [14] appears, read: glioma Patient 5, 1:100-diluted plasma.
Setting [15] is: glioma Patient 6, 1:100-diluted plasma.
Where [16] appears, read: glioma Patient 7, 1:100-diluted plasma.
The mark [17] stands for this setting: glioma Patient 8, 1:100-diluted plasma.
[18] abbreviates: glioma Patient 9, 1:100-diluted plasma.
[19] abbreviates: glioma Patient 10, 1:100-diluted plasma.

Take AFIPGRPML (KIF21B 670-678 peptide): the “Positive cases/total cases, Patients” value is 2/10; the “Positive cases/total cases, Healthy donors” value was 2/10; the “Positive cases/total cases, Total” value was 4/20.
In the case of AFIPGRPMLL (KIF21B 670-679 peptide), the “Positive cases/total cases, Patients” value is reported as 2/10; the “Positive cases/total cases, Healthy donors” value was 2/10; the “Positive cases/total cases, Total” value is given as 4/20.
For CYEVALADF (KIF1C 756-764 peptide), the “Positive cases/total cases, Patients” value is recorded as 0/10; the “Positive cases/total cases, Healthy donors” value is reported as 1/10; the “Positive cases/total cases, Total” value is given as 1/20. Also, the Immunofluoresence intensity under setting [1] was 87.3. Under setting [2], the Immunofluoresence intensity is recorded as 14.0. In addition, the Immunofluoresence intensity under setting [3] worked out at 46.8. Also, the Immunofluoresence intensity under setting [4] is given as 20.0. The sequence further gave an Immunofluoresence intensity under setting [5] of 40.3. The same sequence returned an Immunofluoresence intensity under setting [6] of 47.5. For the same sequence, the Immunofluoresence intensity under setting [7] worked out at 196.0. This sequence also showed an Immunofluoresence intensity under setting [8] of 3893.5. In addition, the Immunofluoresence intensity under setting [9] is reported as 27.0. The “Total (IgG-positive cases/total cases)” value (Table 2, glioma patients) is 0/10. Also, under “Table 2, healthy donors”, the “Total (IgG-positive cases/total cases)” value was 1/10. The sequence also came in with an Immunofluoresence intensity under setting [10] of 36.5. The Immunofluoresence intensity under setting [11] is recorded as 45.0. The sequence further yielded an Immunofluoresence intensity under setting [12] of 28.8. Besides, the Immunofluoresence intensity under setting [13] turned out to be 11.5. Further, the Immunofluoresence intensity under setting [14] is on record as 58.0. Also, the Immunofluoresence intensity under setting [15] came out at 185.8. The Immunofluoresence intensity under setting [16] is reported as 40.3. The sequence further returned an Immunofluoresence intensity under setting [17] of 6.5. The sequence further showed an Immunofluoresence intensity under setting [18] of 7.5. In addition, under setting [19], the Immunofluoresence intensity is given as 658.0.
As to EYIRVRQDL (KIF3C 607-615 peptide), the “Positive cases/total cases, Patients” value was 2/10; the “Positive cases/total cases, Healthy donors” value is recorded as 3/10; the “Positive cases/total cases, Total” value was 5/20.
The corresponding values for GYLIIENFI (KIF3C 629-637 peptide) are 0/10, 1/10 and 1/20.
The corresponding values for IYQEEIRDL (KIF3C 147-155 peptide) are 0/10, 1/10 and 1/20.
For IYQEEIRDLL (KIF3C 147-156 peptide) the same measures were 0/10, 1/10 and 1/20.
On to KYCSHSGLVF (KIF21B 473-482 peptide), for which the “Positive cases/total cases, Patients” value was 2/10; the “Positive cases/total cases, Healthy donors” value is 2/10; the “Positive cases/total cases, Total” value is recorded as 4/20.
Consider NYEETLSTL (KIF1C 331-339 peptide), for which the “Positive cases/total cases, Patients” value is on record as 0/10; the “Positive cases/total cases, Healthy donors” value is 0/10; the “Positive cases/total cases, Total” value was 0/20. Moreover, under setting [1], the Immunofluoresence intensity turned out to be 70.0. In addition, under setting [2], the Immunofluoresence intensity is 13.5. Under setting [3], this sequence gave an Immunofluoresence intensity of 29.0. The same sequence returned an Immunofluoresence intensity under setting [4] of 16.5. Besides, under setting [5], the Immunofluoresence intensity came to 35.0. In addition, under setting [6], the Immunofluoresence intensity turned out to be 40.0. Besides, under setting [7], the Immunofluoresence intensity was 233.0. Under setting [8], this sequence registered an Immunofluoresence intensity of 4133.0. For the same sequence, under setting [9], the Immunofluoresence intensity is 22.5. In addition, the Immunofluoresence intensity (Healthy donor 10, 1:100-diluted plasma) is given as 62.5. In addition, the “Total (IgG-positive cases/total cases)” value (Table 2, glioma patients) was 0/10. For the same sequence, for the setting “Table 2, healthy donors”, the “Total (IgG-positive cases/total cases)” value is on record as 0/10. Moreover, the Immunofluoresence intensity under setting [10] turned out to be 33.5. Further, the Immunofluoresence intensity under setting [11] is reported as 39.5. The Immunofluoresence intensity under setting [12] is given as 22.0. For the same sequence, under setting [13], the Immunofluoresence intensity was 10.5. The sequence also came in with an Immunofluoresence intensity under setting [14] of 53.5. Moreover, the Immunofluoresence intensity under setting [15] is listed as 86.5. The sequence also returned an Immunofluoresence intensity under setting [16] of 35.5. Further, the Immunofluoresence intensity under setting [17] is recorded as 8.5. For the same sequence, the Immunofluoresence intensity under setting [18] was 5.5. Under setting [19], this sequence displayed an Immunofluoresence intensity of 485.4.
On to NYVPGLTPCL (KIF21B 731-740 peptide), for which the “Positive cases/total cases, Patients” value is 1/10; the “Positive cases/total cases, Healthy donors” value was 1/10; the “Positive cases/total cases, Total” value is listed as 2/20.
With QYLVRASYL (KIF3C 137-145 peptide), the “Positive cases/total cases, Patients” value is given as 2/10; the “Positive cases/total cases, Healthy donors” value was 1/10; the “Positive cases/total cases, Total” value is given as 3/20.
With RFVPPHDCKL (KIF1C 968-977 peptide), the “Positive cases/total cases, Patients” value was 4/10; the “Positive cases/total cases, Healthy donors” value was 5/10; the “Positive cases/total cases, Total” value was 9/20. The sequence further came in with an Immunofluoresence intensity under setting [1] of 117.0. Under setting [2], this sequence yielded an Immunofluoresence intensity of 23.5. In addition, the Immunofluoresence intensity under setting [4] is on record as 33.0. The Immunofluoresence intensity under setting [5] was 58.5. This sequence yielded an Immunofluoresence intensity under setting [9] of 32.3. The “Total (IgG-positive cases/total cases)” value (Table 2, glioma patients) is given as 4/10. Also, the “Total (IgG-positive cases/total cases)” value (Table 2, healthy donors) is 5/10. In addition, under setting [10], the Immunofluoresence intensity was 77.0. Under setting [13], the Immunofluoresence intensity was found to be 27.0. Under setting [14], this sequence registered an Immunofluoresence intensity of 97.0. The sequence further registered an Immunofluoresence intensity under setting [16] of 74.8. Under setting [17], this sequence registered an Immunofluoresence intensity of 12.5. Further, the Immunofluoresence intensity under setting [18] turned out to be 19.5.
Regarding RYRAENIMFL (KIF3C 702-711 peptide), the “Positive cases/total cases, Patients” value is given as 2/10; the “Positive cases/total cases, Healthy donors” value is 5/10; the “Positive cases/total cases, Total” value is recorded as 7/20.
For SYDESLSTL (KIF3C 347-355 peptide) the same measures were 0/10, 0/10 and 0/20.
The corresponding values for VYIKDLSSF (KIF3C 174-182 peptide) are 1/10, 2/10 and 3/20.
With VYQIPQRRRL (KIF1C 725-734 peptide), the “Positive cases/total cases, Patients” value is given as 3/10; the “Positive cases/total cases, Healthy donors” value is on record as 5/10; the “Positive cases/total cases, Total” value was 8/20. The Immunofluoresence intensity under setting [1] came out at 99.5. The Immunofluoresence intensity under setting [2] turned out to be 19.5. This sequence showed an Immunofluoresence intensity under setting [3] of 66.8. Besides, under setting [4], the Immunofluoresence intensity was 30.5. Further, under setting [5], the Immunofluoresence intensity worked out at 52.5. Besides, the “Total (IgG-positive cases/total cases)” value (Table 2, glioma patients) is listed as 4/10. For the same sequence, the “Total (IgG-positive cases/total cases)” value (Table 2, healthy donors) is listed as 5/10. In addition, under setting [10], the Immunofluoresence intensity is 65.5. This sequence also returned an Immunofluoresence intensity under setting [11] of 85.3. This sequence registered an Immunofluoresence intensity under setting [12] of 61.3. Besides, the Immunofluoresence intensity under setting [13] came out at 19.5. Also, the Immunofluoresence intensity under setting [14] amounted to 98.5. Under setting [17], this sequence registered an Immunofluoresence intensity of 10.0. The same sequence gave an Immunofluoresence intensity under setting [18] of 9.3.
With VYRDIGEEML (KIF1C 73-82 peptide), the “Positive cases/total cases, Patients” value was 3/10; the “Positive cases/total cases, Healthy donors” value is 6/10; the “Positive cases/total cases, Total” value was 9/20. This sequence also displayed an Immunofluoresence intensity under setting [2] of 19.5. Under setting [3], this sequence showed an Immunofluoresence intensity of 64.5. Under setting [4], the Immunofluoresence intensity is recorded as 29.5. The Immunofluoresence intensity under setting [5] was determined as 50.0. In addition, the “Total (IgG-positive cases/total cases)” value (Table 2, glioma patients) is recorded as 3/10. Further, the “Total (IgG-positive cases/total cases)” value (Table 2, healthy donors) is 6/10. Under setting [10], this sequence returned an Immunofluoresence intensity of 57.8. This sequence returned an Immunofluoresence intensity under setting [11] of 80.5. This sequence showed an Immunofluoresence intensity under setting [12] of 46.8. Further, the Immunofluoresence intensity under setting [13] stood at 17.5. The same sequence had an Immunofluoresence intensity under setting [16] of 68.5. In addition, the Immunofluoresence intensity under setting [17] is on record as 11.5. Besides, the Immunofluoresence intensity under setting [18] is 11.0.

(Values after patent US7968098B2, “HLA-A24-binding KIF-derived peptide” (Kurume University, priority 2006, dated 2011).)
